Where two headings read alike, the source gives them in different places.
Legend:
[1] = tested on: LANCaP; assay: WST cell growth inhibition, LANCaP; assay type: cell-based
[2] = tested on: SJSA-1; assay: WST cell growth inhibition, SJSA-1; assay type: cell-based
[3] = tested on: SJSA-1 osteosarcoma cell line; assay: qRT-PCR of p53 target gene mRNA in SJSA-1 cells; assay type: cell-based; conditions: for effect on mRNA levels of Bax and Noxa: qRT-PCR
[4] = tested on: HCT-116 (p53−/−); assay: WST cell growth inhibition, HCT-116; assay type: cell-based
[5] = tested on: HCT-116; assay: WST cell growth inhibition, HCT-116; assay type: cell-based
[6] = tested on: RS4;11; assay: WST cell growth inhibition, RS4; assay type: cell-based
[7] = tested on: Mcl-1; assay: binding to Mcl-1; conditions: at 10 μM
[8] = oral pharmacokinetics in dogs; assay type: in vivo
[9] = tested on: SJSA-1, HCT-116, RS4;11 and LNCaP cell lines; assay: Western blotting of p53 activation in four cell lines; assay type: cell-based
[10] = tested on: cancer cell lines with a mutated or deleted p53; assay: cell growth inhibition, mutated or deleted p53 lines; assay type: cell-based; conditions: read-out: IC50 of cell growth inhibition
[11] = tested on: SJSA-1 xenograft tumors; assay: SJSA-1 osteosarcoma xenograft efficacy; assay type: in vivo, SCID mice; conditions: SJSA-1 model
[12] = tested on: SJSA-1 tumor tissue; assay: pharmacodynamics, qRT-PCR in SJSA-1 tumor tissue; assay type: in vivo, mice; conditions: single oral dose
[13] = molecular target: MDM2 18–118 protein (Homo sapiens, UniProt Q00987); assay: FP binding assay, truncated MDM2 18–118; conditions: MDM2 18–118 vs 1–118
[14] = tested on: HCT-116 colon cancer cell line; assay: flow cytometry cell cycle and apoptosis, HCT-116; assay type: cell-based
[15] = molecular target: human MDM2 protein (Homo sapiens, UniProt Q00987); assay: fluorescence-polarization competitive binding assay, MDM2 1–118
[16] = tolerability in efficacy experiments; conditions: mice, all dose-scheduled tests of the efficacy experiments
[17] = tested on: SAOS-2; assay: WST cell growth inhibition, SAOS-2; assay type: cell-based; conditions: Homo sapiens, SAOS-2, read-out: Cell growth Inhibition (IC50, μM)
[18] = tested on: MDMx; assay: Biolayer Interferometry binding to MDMx; conditions: at 10 μM
[19] = tested on: SJSA-1 cells with p53 knock-down; assay type: cell-based
[20] = tested on: SW620; assay: WST cell growth inhibition, SW620; assay type: cell-based; conditions: Homo sapiens, SW-620, read-out: Cell growth Inhibition (IC50, μM)
[21] = oral pharmacokinetics in rats; assay type: in vivo
[22] = tested on: HCT-116 xenograft tumor tissue; assay: pharmacodynamics, qRT-PCR in HCT-116 tumor tissue; assay type: in vivo, mice; conditions: single oral dose, even at 200 mg/kg
[23] = tested on: HCT-116 xenograft tumors; assay: HCT-116 colon cancer xenograft efficacy; assay type: in vivo, SCID mice; conditions: HCT-116 model
[24] = mouse, in vivo
[25] = tested on: LNCaP prostate cancer cell line; assay: flow cytometry cell cycle and apoptosis, LNCaP; assay type: cell-based
[26] = tested on: HCT-116 colon cancer cell line; assay: qRT-PCR of p53 target gene mRNA in HCT-116 cells; assay type: cell-based
[27] = tested on: wild-type p53 cancer cell lines of diverse tumor types; assay: cell growth inhibition, wild-type p53 lines; assay type: cell-based
[28] = tested on: PC-3; assay: WST cell growth inhibition, PC-3; assay type: cell-based; conditions: Homo sapiens, PC-3, read-out: Cell growth Inhibition (IC50, μM)
[29] = tested on: β-catenin; assay: binding to β-catenin; conditions: at 10 μM
[30] = tested on: Bcl-xL; assay: binding to Bcl-xL; conditions: at 10 μM
[31] = tested on: RS4;11 xenograft tumors; assay: RS4; assay type: in vivo, SCID mice; conditions: RS4;11 model
[32] = molecular target: MDM2 25–118 protein (Homo sapiens, UniProt Q00987); assay: FP binding assay, truncated MDM2 25–118; conditions: MDM2 25–118 vs 1–118
[33] = stability in cell culture media and two other solutions; assay type: physicochemical; conditions: cell culture media and two other solutions in which some spiro-oxindoles isomerize
[34] = tested on: LNCaP xenograft tumors; assay: LNCaP prostate cancer xenograft efficacy; assay type: in vivo, SCID mice; conditions: LNCaP model
[35] = oral pharmacokinetics in mice; assay type: in vivo
[36] = tested on: Bcl-2; assay: binding to Bcl-2; conditions: at 10 μM
[37] = read-out: Cell growth Inhibition (IC50), LANCaP, p53 Wild Type
[38] = read-out: Cell growth Inhibition (IC50), SJSA-1, p53 Wild Type
[39] = read-out: Cell growth Inhibition (IC50), HCT-116, p53 Wild Type
[40] = read-out: Cell growth Inhibition (IC50), RS4;11, p53 Wild Type
[41] = Homo sapiens, HCT-116, read-out: Cell growth Inhibition (IC50, μM)

For `CC(C)(C)C[C@H]1N[C@@H](C(=O)NCC[C@H](O)CO)[C@H](c2cccc(Cl)c2)[C@@]12C(=O)Nc1cc(Cl)c(F)cc12.Cl` [MI-219], the IC50 [1, 37] was 1.1 ± 0.1 µM, the IC50 [2, 38] was 1.4 ± 0.2 µM and the “effect on mRNA levels of Bax and Noxa” value ([3]; SJSA-1 cells) was “no significant effect”. The IC50 ([4]; read-out: Cell growth Inhibition (IC50), HCT-116 (p53−/−), p53 Deletion) was > 10 µM, the IC50 [5, 39] was 0.95 ± 0.05 µM and the IC50 [6, 40] was 1 ± 0.2 µM.
For `CC(C)(C)C[C@@H]1N[C@@H](C(=O)N[C@H]2CC[C@H](O)CC2)[C@H](c2cccc(Cl)c2F)[C@]12C(=O)Nc1cc(Cl)ccc12` [SAR405838], the IC50 ([1]; read-out: Cell growth Inhibition (IC50, μM)) was 0.27 ± 0.03 µM, the “binding to Mcl-1” value [7] was “no appreciable binding” and the “oral pharmacokinetics (PK)” value [8] was “good”. The “times more potent than MI-219 in activation of p53” value [9] was > 10 times, the IC50 [10] was ≥ 10000 nM and the antitumor activity ([11]; 10 mg/kg daily oral for 2 weeks) was “no significant activity”. For the same compound, the antitumor activity ([11]; 30 mg/kg daily oral for 2 weeks) was “partial tumor regression”, the antitumor activity ([11]; 100 mg/kg daily oral for 2 weeks) was “rapid, complete and persistent tumor regression” and the “shrinkage of average tumor volume” value ([11]; 100 mg/kg daily oral, after four doses) was > 90%. The tumor free mice ([11]; 100 mg/kg daily, day 55, 31 days after the last dose, of 8 mice) was 8 mice, the tumor free animals ([11]; 100 mg/kg daily, day 73, 2 months after the last dose, 5 out of 8) was 63% and the antitumor activity ([11]; single 100 mg/kg oral dose) was “effectively inhibits tumor growth”. The “mice with complete tumor regression” value ([11]; single oral dose of 200 mg/kg) was 100%, the “increase of PUMA mRNA” value [12] was > 40 fold and the “times weaker than with the MDM2 1–118 protein” value [13] was 10 times. The “concentration that effectively inhibits cell cycle progression” value ([14]; HCT-116, 24 h treatment) was ≥ 0.3 µM, the apoptosis induction ([14]; HCT-116, even at 10 μM) was “modest or minimal effect” and the “times more potent than MI-219 in MDM2 binding” value ([15]; comparator MI-219) was > 10 times. For the same compound, the “times more potent than nutlin-3a in MDM2 binding” value ([15]; comparator nutlin-3a) was > 50 times, the “times more potent than the p53 peptide in MDM2 binding” value ([15]; comparator p53 peptide) was > 1,000 times and the weight loss [16] was “less than 10%”. The IC50 [17] was > 10 µM, the “binding to MDMx” value [18] was “no appreciable binding” and the IC50 ([2]; Homo sapiens, SJSA-1, read-out: Cell growth Inhibition (IC50, μM)) was 0.092 ± 0.019 µM. For the same compound, the “reduction of potency in cell growth inhibition by p53 knock-down” value [19] was > 20 times, the IC50 [20] was > 10 µM and the “oral pharmacokinetics (PK)” value [21] was “good”. The “maximum induction of PUMA mRNA over the control” value [22] was 3 fold, the EC50 ([3]; Homo sapiens, SJSA-1, read-out: EC50 of up-regulation of MDM2, p21 and PUMA mRNA) was 300 to 600 nM and the “effect on p53 mRNA” value ([3]; SJSA-1 cells) was “no effect”. For the same compound, the “times more potent than MI-219 and nutlin-3a in induction of p21 and MDM2 transcription” value ([3]; SJSA-1 cells) was 5–10 times, the “induction of PUMA mRNA” value ([3]; SJSA-1 cells, at 1 μM) was 19 fold and the “effect on mRNA levels of Bax and Noxa” value ([3]; SJSA-1 cells) was “no significant effect”. For the same compound, the “tumor growth inhibition over the vehicle control” value ([23]; 100 mg/kg daily dosing, end of the treatment) was > 80%, the antitumor activity ([23]; 200 mg/kg daily dosing) was “completely inhibits tumor growth” and the signs of toxicity [24] was “no signs of toxicity”. For the same compound, the “concentration that effectively inhibits cell cycle progression” value ([25]; 24 h treatment) was ≥ 0.3 µM, the apoptosis induction ([25]; even at 10 μM) was “modest or minimal effect” and the “effect on p53 mRNA” value ([26]; HCT-116 cells) was “no increase”. The “times more potent than MI-219 and nutlin-3a in induction of p21 and MDM2 transcription” value ([26]; HCT-116 cells) was 5–10 times, the “increase of PUMA mRNA” value ([26]; HCT-116 cells, at 1 and 3 μM) was ~ 3 fold and the EC50 ([26]; Homo sapiens, HCT-116, read-out: EC50 of increase of MDM2 and p21 mRNA) was 700 nM. The IC50 [4, 41] was > 20 µM, the IC50 [5, 41] was 0.2 ± 0.04 µM and the “times more potent than MI-219 and nutlin-3a in inhibition of cell growth” value [27] was 5–10 times. For the same compound, the IC50 [28] was > 10 µM, the “binding to β-catenin” value [29] was “no appreciable binding” and the IC50 ([6]; Homo sapiens, RS4-11, read-out: Cell growth Inhibition (IC50, μM)) was 0.089 ± 0.027 µM. The “binding to Bcl-xL” value [30] was “no appreciable binding”, the antitumor activity ([31]; 50 mg/kg daily dosing) was “partial tumor regression” and the antitumor activity ([31]; 100 mg/kg daily dosing) was “complete tumor regression”. For the same compound, the antitumor activity ([31]; 200 mg/kg daily dosing) was “complete tumor regression”, the tumor free mice ([31]; 200 mg/kg, day 71, 25 days after the last dose, of 8 mice) was 8 mice and the “times weaker than with the MDM2 1–118 protein” value [32] was 25 times. For the same compound, the stability in solution [33] was “stable”, the “tumor growth inhibition over the vehicle control” value ([34]; 50 mg/kg daily for 4 weeks) was 70% and the antitumor activity ([34]; 100 mg/kg daily for 4 weeks) was “completely inhibits tumor growth”. For the same compound, the tumor regression ([34]; 200 mg/kg daily for 4 weeks) was 80%, the “oral pharmacokinetics (PK)” value [35] was “good” and the “binding to Bcl-2” value [36] was “no appreciable binding”.
With `COc1ccc(C2=N[C@@H](c3ccc(Cl)cc3)[C@@H](c3ccc(Cl)cc3)N2C(=O)N2CCNC(=O)C2)c(OC(C)C)c1` [Nutlin-3a] the IC50 [1, 37] was 1.2 ± 0.4 µM, the IC50 [2, 38] was 1.3 ± 0.2 µM and the “effect on mRNA levels of Bax and Noxa” value ([3]; SJSA-1 cells) was “no significant effect”. For the same compound, the IC50 [5, 39] was 0.86 ± 0.11 µM and the IC50 [6, 40] was 0.57 ± 0.13 µM.

— publication PMC4247201 (Cancer research, 2014)
